Values of other authors as cited in patent publication US5246920A, “Treatment of hyperprolactinemia” (University of South Florida, priority 1992, dated 1993).
Where no end group is shown, it is not given here. [ ]: non-standard residue; d: D form.

Test system: old rats
Settings: peptides given individually

H[dW]AW[dF]K-NH2 [GHRP-6]
sensitivity of old rats to the individually administered peptides, in words: relatively insensitive

GHRH: Natural growth hormone releasing hormone, also known as growth hormone releasing factor (GHRF or GRF) (YADAIFTNSYRKVLGQLSARKLLQDIMSRQQGESNQERGARARL; ends and bridges not checked; UniProt P01286 32-75, looked up)
sensitivity of old rats to the individually administered peptides, in words: relatively insensitive
